Molecular target: T1, human DGAT1 (Homo sapiens, UniProt O75907)
T1 construct: made in house; host or cells: Sf9 insect cells (recombinant baculovirus); membrane fraction
T1 sequence (O75907 1-488): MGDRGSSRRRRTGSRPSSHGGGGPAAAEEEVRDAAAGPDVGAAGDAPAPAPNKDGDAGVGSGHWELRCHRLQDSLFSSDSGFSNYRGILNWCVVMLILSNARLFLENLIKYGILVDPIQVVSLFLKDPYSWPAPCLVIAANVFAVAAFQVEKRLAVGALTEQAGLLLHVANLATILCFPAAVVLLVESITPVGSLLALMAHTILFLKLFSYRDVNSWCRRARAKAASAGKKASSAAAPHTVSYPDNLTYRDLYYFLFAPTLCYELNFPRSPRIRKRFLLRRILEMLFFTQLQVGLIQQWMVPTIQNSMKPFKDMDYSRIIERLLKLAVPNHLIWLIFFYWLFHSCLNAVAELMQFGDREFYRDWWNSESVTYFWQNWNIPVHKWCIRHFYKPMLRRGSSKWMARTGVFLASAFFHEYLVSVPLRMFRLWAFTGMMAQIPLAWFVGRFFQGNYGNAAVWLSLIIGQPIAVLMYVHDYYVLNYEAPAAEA
Experiment: Human enzyme assay, further developed assay (14C oleoyl CoA, 96 well plate)
Format: biochemical
Details: human DGAT1 expressed in insect cell (sf9) membranes
Description: The in vitro assay to identify DGAT1 inhibitors uses human DGAT1 expressed in insect cell membranes as the enzyme source (Proc. Natl. Acad. Sci. 1998, 95, 13018-13023). Briefly, sf9 cells were infected with recombinant baculovirus containing human DGAT1 coding sequences and harvested after 48 h. Cells were lysed by sonication and membranes isolated by centrifuging at 28000 rpm for 1 h at 4° C. on a 41% sucrose gradient. The membrane fraction at the interphase was collected, washed, and stored in liquid nitrogen.
In a further developed assay, DGAT1 activity was assayed by a modification of the method described by Coleman (Methods in Enzymology 1992, 209, 98-102). Compound at 0.00003-10 μM (final cone) was incubated with 25 μg/ml (final cone) membrane protein, 5 mM MgCl2, and 100 μM 1,2 dioleoyl-sn-glycerol in a total assay volume of 200 μl in a 96 well plate. The reaction was started by adding ^14C oleoyl coenzyme A (30 μM final concentration) and incubated at room temperature for 30 minutes. The reaction was stopped by adding 300 μl 2-propanol:heptane 7:1. Radioactive triolein product was separated into the organic phase by adding 200 μl heptane and 200 μl 0.1 M carbonate buffer pH 9.5. DGAT1 activity was quantified by counting aliquots of the upper heptane layer by liquid scintillography.

SMILES	IC50 [nM]
O=C(Nc1ccc(O[C@H]2CC[C@H](C(=O)O)CC2)nc1)c1nnc(Nc2cc(C(F)(F)F)c(F)cc2F)o1 [Example 35]	87
CC(C)c1ccc(Nc2nnc(C(=O)Nc3ccc(O[C@H]4CC[C@H](C(=O)O)CC4)nc3)o2)cc1 [Example 30, (1r,4r)-4-(5-(5-(4-isopropyl-phenylamino)-1,3,4-oxadiazole-2-carboxamido)pyridin-2-yloxy)cyclo-hexane-carboxylic acid]	17
O=C(Nc1cnc(O[C@H]2CC[C@@H](C(=O)O)CC2)c(Cl)c1)c1nnc(Nc2ccc(Cl)cc2Cl)o1 [Example 46, (1s,4s)-4-(3-Chloro-5-(5-(2,4-dichlorophenylamino)-1,3,4-oxadiazole-2-carboxamido)pyridin-2-yloxy)cyclohexanecarboxylic acid]	22
COC[C@]1(C(=O)O)CC[C@H](Oc2ccc(NC(=O)c3nnc(Nc4ccc(F)c(F)c4)o3)cn2)CC1 [Example 4, (1r,4r)-4-(5-(5-(3,4-Difluorophenylamino)-1,3,4-oxadiazole-2-carboxamido)pyridin-2-yloxy)-1-(methoxymethyl)cyclohexanecarboxylic acid]	15
O=C(Nc1ccc(O[C@@H]2CC[C@@H](C(=O)O)C2)nc1)c1nnc(Nc2ccc(F)c(F)c2)o1 [Example 49, (1R,3R)-3-(5-(5-(3,4-Difluorophenylamino)-1,3,4-oxadiazole-2-carboxamido)pyridin-2-yloxy)cyclopentanecarboxylic acid]	18
Cc1cc(OC2CCC(C(=O)O)CC2)ncc1NC(=O)c1nnc(Nc2ccc(F)c(Cl)c2)o1 (centres unmarked) [Example 41, (1s,4s)-4-(5-(5-(3-Chloro-4-fluorophenylamino)-1,3,4-oxadiazole-2-carboxamido)-4-methylpyridin-2-yloxy) cyclohexanecarboxylic acid]	3.4
Cc1ccc(Nc2nnc(C(=O)Nc3ccc(O[C@H]4CC[C@H](C(=O)O)CC4)nc3)o2)cc1Cl [Example 26, (1r,4r)-4-(5-(5-(3-chloro-4-methyl-phenylamino)-1,3,4-oxadiazole-2-carboxamido)pyridin-2-yloxy)cyclo-hexane-carboxylic acid]	13
O=C(Nc1ccc(OC2CCC(C(=O)O)CC2)nc1)c1nnc(Nc2ccc(OC(F)F)cc2)o1 (centres unmarked) [Example 21, 4-[(5-{[(5-{[4-(difluoromethoxy)phenyl]amino}-1,3,4-oxadiazol-2-yl)carbonyl]amino}pyridin-2-yl)oxy]cyclohexanecarboxylic acid]	11
COc1cc(O[C@H]2CC[C@@H](C(=O)O)CC2)ncc1NC(=O)c1nnc(Nc2ccc(F)c(F)c2)o1 [Example 43, (1s,4s)-4-(5-(5-(3,4-Difluorophenylamino)-1,3,4-oxadiazole-2-carboxamido)-4-methoxypyridin-2-yloxy)cyclohexanecarboxylic acid]	50
O=C(Nc1cnc(O[C@H]2CC[C@@H](C(=O)O)CC2)c(Cl)c1)c1nnc(Nc2ccc(F)c(Cl)c2)o1 [Example 48, (1s,4s)-4-(3-Chloro-5-(5-(3-chloro-4-fluorophenylamino)-1,3,4-oxadiazole-2-carboxamido)pyridin-2-yloxy)cyclohexanecarboxylic acid]	14
Cc1cc(OC2CCC(C(=O)O)CC2)ncc1NC(=O)c1nnc(Nc2ccc(Cl)c(F)c2)o1 (centres unmarked) [Example 42, (1s,4s)-4-(5-(5-(4 - Chloro-3-fluorophenylamino)-1,3,4-oxadiazole-2-carboxamido)-4-methylpyridin-2-yloxy) cyclohexanecarboxylic acid]	1.1
O=C(Nc1ccc(O[C@H]2CC[C@@H](C(=O)O)CC2)nc1F)c1nnc(Nc2cc(F)c(F)cc2F)o1 [Example 70, (1s,4s)-4-(6-Fluoro-5-(5-(2,4,5-trifluorophenylamino)-1,3,4-oxadiazole-2-carboxamido)pyridin-2-yloxy)cyclohexanecarboxylic acid]	4.1
C[C@]1(C(=O)O)CC[C@@H](Oc2ccc(NC(=O)c3nnc(Nc4ccc(F)c(F)c4)o3)cn2)CC1 [Example 68, (1s,4s)-4-(5-(5-(3,4-Difluorophenylamino)-1,3,4-oxadiazole-2-carboxamido)pyridin-2-yloxy)-1-methylcyclohexanecarboxylic acid]	8.3
O=C(O)c1ccc(Oc2ccc(NC(=O)c3nnc(Nc4ccc(F)c(F)c4)o3)cn2)cc1 [Example 38, 4-(5-(5-(3,4-Difluorophenylamino)-1,3,4-oxadiazole-2-carboxamido)-Pyridin-2-yloxy)benzoic acid]	5.4
O=C(Nc1ccc(O[C@H]2CC[C@@H](C(=O)O)CC2)nc1)c1nnc(Nc2ccc(OC(F)(F)F)cc2)o1 [Example 11, (1s,4s)-4-(5-(5-(4-(trifluoromethoxy)phenylamino)-1,3,4-oxadiazole-2-carboxamido)pyridin-2-yloxy)cyclohexanecarboxylic acid]	7.2
O=C(Nc1cnc(O[C@H]2CC[C@@H](C(=O)O)CC2)c(Cl)c1)c1nnc(Nc2ccc(F)c(F)c2)o1 [Example 47, (1s,4s)-4-(3-Chloro-5-(5-(3,4-difluorophenylamino)-1,3,4-oxadiazole-2-carboxamido)pyridin-2-yloxy)cyclohexanecarboxylic acid]	22
COc1cc(Cl)ccc1Nc1nnc(C(=O)Nc2ccc(O[C@H]3CC[C@@H](C(=O)O)CC3)nc2)o1 [Example 71, (1s,4s)-4-(5-(5-(4-Chloro-2-methoxyphenylamino)-1,3,4-oxadiazole-2-carboxamido)pyridin-2-yloxy)cyclohexanecarboxylic acid]	34
O=C(O)C[C@H]1CC[C@@H](Oc2ccc(NC(=O)c3nnc(Nc4ccc(Cl)cc4Cl)o3)cn2)CC1 [Example 54, 2-((1s,4s)-4-(5-(5-(2,4-Dichlorophenylamino)-1,3,4-oxadiazole-2-carboxamido)pyridin-2-yloxy)cyclohexyl)acetic acid]	8.3
O=C(Nc1ccc(O[C@H]2CC[C@@H](C(=O)O)CC2)nc1)c1nnc(Nc2cccc(Cl)c2)o1 [Example 7, (1s,4s)-4-(5-(5-(3-chlorophenylamino)-1,3,4-oxadiazole-2-carboxamido)pyridin-2-yloxy)cyclohexanecarboxylic acid]	10
COc1cc(O[C@H]2CC[C@@H](C(=O)O)CC2)ncc1NC(=O)c1nnc(Nc2ccc(Br)cc2Cl)o1 [Example 44]	54
CC(C)(C)c1ccc(Nc2nnc(C(=O)Nc3ccc(O[C@H]4CC[C@@H](C(=O)O)CC4)nc3)o2)cc1 [Example 9, (1s,4s)-4-(5-(5-(4-tert-butylphenylamino)-1,3,4-oxadiazole-2-carboxamido)pyridin-2-yloxy)cyclohexanecarboxylic acid]	55
O=C(O)C[C@H]1CC[C@@H](Oc2ccc(NC(=O)c3nnc(Nc4ccc(F)c(F)c4)o3)cn2)CC1 [Example 36, 2-((1s,4s)-4-(5-(5-(3,4-difluorophenylamino)-1,3,4-oxadiazole-2-carboxamido)pyridin-2-yloxy)cyclohexyl)acetic acid]	9.6
O=C(Nc1ccc(O[C@H]2CC[C@H](C(=O)O)CC2)nc1)c1nnc(Nc2ccc(Cl)cc2Cl)o1 [Example 23, (1r,4r)-4-(5-(5-(2,4-dichloro-phenylamino)-1,3,4-oxadiazole-2-carboxamido)pyridin-2-yloxy)cyclo-hexane-carboxylic acid]	21

From US20110092547A1 (priority 2007, published 2011)
